Results taken from patent US8592435B2, “Nitrogen-containing six-membered aromatic ring derivatives and pharmaceutical products containing the same” (Daiichi Sankyo Company, Limited, priority 2007, dated 2013).

Columns and labels:
[1] = system: hippocampal neurons; assay: Test Example 1: ability to promote axonal outgrowth; assay type: cell-based, Wistar rats; details: Hippocampal neuron, 216 h; Compound Conc. = 3 μM; % of control; rat hippocampal neurons, day 9; read-out: Promotion of axonal outgrowth (%)
Method: According to the method of M. P. Mattson [M. P. Mattson, Brain Res. Rev., 13, 179, (1988)], the hippocampal region was isolated from 18-day embryos of female Wistar rats and the neurons were dispersed using the papain dissociation system. Hippocampal neuron were suspended in 5% Nu-serum+B27 supplement+Neurobasal medium at 5×10^4 cells/well/2 mL. 2 mL of the cell suspension were inoculated on a poly-D-lysine-coated 36φ dish and the neuron were incubated at 37° C. in a 5% CO2 incubator.
On day 3 of the incubation period, 1 mL of the culture medium was replaced with 1 mL of 5% Nu-serum+B27 supplement+Neurobasal medium containing 2 mM AraC. Each test compound was added to the culture on day 3 and day 7 of the incubation period. On day 9, cells were fixed in a 4% paraformaldehyde solution. The nerve axons of the fixed cells were stained with the Rabbit anti-growth-associated protein-43 polyclonal antibody and the stained cells were quantified using Kurabo neuron outgrowth-quantication software.
The ability (%) of each test compound to promote axonal outgrowth was calculated from the following equation: The ability to promote axonal outgrowth (%)=[(measurement with a compound of interest)/(measurement of control)]×100
Example Compounds shown in Table 25 were used as test compounds and were each added at concentrations of 3 μM and 0.3 μM.
Since bFGF gives a measurement of about 120 in this test, 120 is used as the threshold to determine whether a given compound has the ability to promote axonal outgrowth

[2] = system: mixture of human vascular endothelial cells and fibroblasts; assay: Test Example 2: ability to promote angiogenesis (angiogenesis test kit KZ-1000); assay type: cell-based; details: Homo sapiens, 216 h, lumen length, % of control, day 9, read-out: Promotion of angiogenesis (%); for activity at 0.3 µM: Compound Conc. = 0.3 μM
Method: Using an angiogenesis test kit containing a mixture of human vascular endothelial cells and fibroblasts [KZ-1000; Kurabo], the ability of test compounds to promote angiogenesis was evaluated. Each test compound was added on days 1, 4, and 7 of the incubation period. On day 9, cells were immunostained with CD31 and photographed. Control cells were cultured under the same conditions, only without the addition of a test compound, and photographed.
The lumen length of the blood vessel was quantified from the obtained images using an angiogenesis-quantification software. The ability (%) of each test compound to promote angiogenesis was calculated from the following equation: The ability to promote angiogenesis (%)=[(measurement with a compound of interest)/(measurement of control)]×100
Example Compounds shown in Table 26 were used as test compounds.
Since bFGF gives a measurement of about 120 in this test, 120 is used as the threshold to determine whether a given compound has the ability to promote angiogenesis.

[3] = system: microsphere (micro-embolism) model; assay: Test Example 6: rat microsphere (micro-embolism) model; assay type: in vivo, Crl:CD(SD) rats; details: rats, oral 1.0 mg/kg once daily for 10 days (Compound 65 also 0.1 mg/kg); 2 weeks after surgery
Description: According to the method of Ichiro Date et al. [Journal of Neuroscience Research 78; 442-453 (2004)], 8-week-old male Crl:CD(SD) rats were used. Animals were anesthetized with halothane and midline incision was made. Right carotid artery was separated and a thread was looped around the common carotid artery and external carotid artery. The pterygopalatine artery was temporarily clipped with an aneurysm clip. The blood flow through the common carotid artery and external carotid artery was temporarily interrupted and 0.1 mL of a microsphere suspension composed of microspheres dispersed in a 30% sucrose solution (1800 microspheres/0.1 mL) was injected into the common carotid artery. After injection of the suspension, the puncture of the injection needle was filled with instant glue while the blood flow was interrupted. The blood flow was then restored and the surgical wound was sutured. Neurological symptoms were observed the day following the surgery. The animals were assigned to each treated group at random with respect to the measurements of neurological symptoms, the decrease in body weight from the previous day, and the body weight on that day.
The test compounds used were Example Compound 65, 108, 130, 135 and 137, each of which was administered at a dose of 1.0 mg/kg. Example Compound 65 was administered also at a dose of 0.1 mg/kg. Each compound was orally administered once daily for 10 days starting from the following day of the surgery. Coordinated motor functions were measured 5 times on an accelerated rota-rod (4 to 40 rpm/5 min) 2 weeks after the surgery.
Specifically, FIGS. 11 to 15 show the effect of different compounds 2 weeks after the microsphere injection (rota-rod test standard parameter). The figures show the results of rota-rod tests 2 weeks after the ischemic event in which each compound was orally administered at 1.0 mg/kg once daily for 10 days (Example Compound 65 was administered at 0.1 mg/kg or 1.0 mg/kg). What is shown in the figures is the total time of the 5 measurements on rota-rod as a standard parameter.
***: p<0.0001, Dunnett's multiple range test vs. Vehicle.

[4] = system: critical limb ischemia model (left femoral artery excised); assay: Test Example 4: lower limb ischemia (critical limb ischemia) model in mice; assay type: in vivo, Balb/c mice; details: oral once daily 0.1 or 1.0 mg/kg for 10 days from femoral artery excision, vs Vehicle
Method: According to the method of Ichiro Masaki [Circ Res. 90; 966-973 (2002)], the left femoral artery of Balb/c mice was excised to establish a model of critical limb ischemia (n=29 to 30).
Test compounds used were Example Compounds 65, 92, 114, 130, 135 and 136, each of which was orally administered once daily at a dose of 0.1 mg/kg or 1.0 mg/kg for 10 days starting from the day of femoral artery excision.
The results are shown in FIGS. 1 to 6 in which FIGS. 1, 2, 3, 4, 5 and 6 show the results of Example Compounds 65, 92, 114, 130, 135 and 136, respectively.
In the figures, a thick solid line indicates a Vehicle group, a thin dotted line indicates a group administered 0.1 mg/kg/day of each compound, and a thin solid line indicates a group administered 1.0 mg/kg/day of each compound.
*: P<0.05, **: P<0.01, ***: P<0.001 vs Vehicle by Wilcoxon's test.

[5] = system: spinal cord neurons; assay: Test Example 3: ability to promote the neurite outgrowth of spinal cord neurons; assay type: cell-based, Wistar rats; details: Compound Conc. = 0.1 μM; % of control, day 3
Method: According to the method of Martin G. Hanson Jr. [J. Neurosci., 1998 Sep. 15; 18(18): 7361-71], the spinal cord region was isolated from 15-day embryos of female Wistar rats and the cells were dispersed using the papain dissociation system. Neurons were collected using 6.8% Metrizamide density gradient and were suspended in 2% FBS+Leibovitz's −15 medium so that the density of the cells will be 2×10^3 cells/well/200 μL. 200 μL of the cell suspension was inoculated on a poly-D-lysine/laminin-coated 96 well plate and the plate was incubated in an incubator at 37° C. Test compounds were added 1 hour after seeding of cells.
On day 3 of the incubation period, neurons were stained with Calcein-AM and the lengths of neurites were determined using IN Cell Analyzer (GE Healthcare Bioscience).
The ability (%) of each test compound to promote neurite outgrowth was calculated from the following equation: The ability to promote neurite outgrowth (%)=[(measurement with a compound of interest)/(measurement of control)]×100
Example Compounds 65, 71, 74, 92, 130 and 135 were used as test compounds and were each added at a concentration of 0.1 μM.
The results are shown in Table 27. bFGF gives a measurement of about 130 in this test.

[6] = target: T1, chemokine receptor CCR3 (Homo sapiens, UniProt P51677); assay: Affinity to chemokine receptor CCR3; assay type: binding; details: at a concentration of 10 μM
T1 sequence (P51677 1-355): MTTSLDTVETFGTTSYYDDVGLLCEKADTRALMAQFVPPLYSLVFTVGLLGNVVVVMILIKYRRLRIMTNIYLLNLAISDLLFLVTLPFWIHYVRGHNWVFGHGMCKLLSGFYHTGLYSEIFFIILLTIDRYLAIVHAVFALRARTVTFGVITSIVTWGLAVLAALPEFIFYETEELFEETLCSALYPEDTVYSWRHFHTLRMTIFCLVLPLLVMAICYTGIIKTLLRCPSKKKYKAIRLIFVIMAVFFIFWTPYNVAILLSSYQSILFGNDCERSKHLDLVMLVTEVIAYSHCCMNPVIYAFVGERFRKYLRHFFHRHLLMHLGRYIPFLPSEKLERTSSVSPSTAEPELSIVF
Description: Although the compounds of the present invention are novel compounds, compounds having a partly similar skeleton are described, for example, in Published Japanese Translation of PCT International Application No. 2003-507456, WO 01/79170 and WO 00/23076.

| SMILES | activity at 3 µM [1] [%] | activity at 0.3 µM [2] [%] | coordinated motor functions, total time of 5 measurements on rota-rod [3] | survival rate of lower limb [4] | Promotion of spinal cord neurite outgrowth (%) [5] [%] | affinity to chemokine receptor CCR3 [6] [%] | activity at 3 µM ([2]; Compound Conc. = 3 μM) [%] |
| --- | --- | --- | --- | --- | --- | --- | --- |
| Cc1cnc(N)nc1NCC(=O)N(C)C1CCN(CC2CC2)CC1 [Compound 108, 2-(2-amino-5-methylpyrimidine-4-ylamino)-N-(1-(cyclopropylmethyl)piperidine-4-yl)-N-methylacetamide] | 122 | 114 | highly effective in ameliorating ischemic cerebral infarction | – | – | – | – |
| CNc1nccnc1OCC(=O)N(C)C1CCN(Cc2ccccc2)CC1.Cl [Compound 130, N-(1-benzylpiperidine-4-yl)-N-methyl-2-(3-(methylamino)pyrazine-2-yloxy)acetamide hydrochloride] | 143 | 118 | highly effective in ameliorating ischemic cerebral infarction | increased survival rate | 128 | 3.5 | – |
| CN(C(=O)COc1ccc(Cl)nn1)C1CCN(C(=O)C2CC2)CC1 [Compound 135, 2-(6-chloropyridazine-3-yloxy)-N-(1-(cyclopropanecarbonyl)piperidine-4-yl)-N-methylacetamide] | 131 | – | highly effective in ameliorating ischemic cerebral infarction | increased survival rate | 121 | 22 | 140 |
| CN(C(=O)COc1ccc(Cl)nn1)C1CCN(Cc2ccccc2)CC1 [Compound 137, N-(1-benzylpiperidine-4-yl)-2-(6-chloropyridazine-3-yloxy)-N-methylacetamide] | – | – | highly effective in ameliorating ischemic cerebral infarction | – | – | – | – |
